What was measured:
Type in all cases: in vivo
warm-season turfgrasses = assay: Abiotic stress and phytotoxicity at stated application rates on warm-season turfgrasses; settings: ASM between about 4 and about 200 g/ha per application
Source text: As indicated above, the methods of the present invention may be useful in suppressing abiotic stress or stresses in warm-season turfgrasses. In some embodiments of the present invention, ASM may be applied at a rate of between about 4 and about 200 g/ha per application. In further embodiments of the invention, ASM may be applied at a rate between about 12 and about 150 g/ha per application, or between 12 and about 96 g/ha per application, or between about 12 and about 64 g/ha per application, or between about 12 and about 32 g/ha per application, or between about 32 and about 140 g/ha per application, or between about 32 and about 96 g/ha per application, or between about 32 and about 64 g/ha per application, or between about 64 and about 140 g/ha per application, or between about 64 and about 96 g/ha per application, or between about 96 and about 140 g/ha per application.

cool-season grasses = assay: Phytotoxicity at stated application rates on cool-season grasses; settings: ASM between about 4 and about 200 g/ha per application
Ultradwarf Bermudagrass [1] = assay: Evapotranspiration of treated turfgrass samples at various vapor pressure deficits in the growth chamber (Example 3); settings: ASM 30.8 g/ha per spray, 15 applications at 14 day intervals, with chlorothalonil, fluazinam and azoxystrobin products; vs Control without ASM; samples July 2015 and September 2015
Source text: (§1) Fifteen applications of treatments were made on 14 day intervals through the season (starting in May and extending through October) on Ultradwarf Bermudagrass on golf course greens. The treatments included (1) a Control that included products with the active ingredients of chlorothalonil, fluazinam and azoxystrobin and no ASM and (2) a treatment that included products with the same active ingredients and rates of the Control treatment, but also included 30.8 g/ha rate of ASM for each spray.
(§2) Turfgrass Samples from the treated plots were taken from a) the ASM treated plots as well b) the Control plots without acibenzolar-s-methyl at two different timings—July 2015 and September 2015. All samples were tested for evapotranspiration at various vapor pressure deficits (VPD) in the growth chamber. The results of the testing are illustrated in FIGS. 9-12.

Ultradwarf Bermudagrass [2] = assay: Turf quality and phytotoxicity on golf course greens (Example 3); settings: ASM 30.8 g/ha per spray, 15 applications at 14 day intervals
Source text: as §1, §2

CSC(=O)c1cccc2nnsc12 [ASM, S-methyl benzo[1,2,3]thiadiazole-7-carbothioate]
phytotoxicity to warm-season turfgrasses (warm-season turfgrasses): avoiding unacceptable phytotoxicity
phytotoxicity to cool-season grasses (cool-season grasses): unacceptable levels of phytotoxicity
evapotranspiration as VPD increases (Ultradwarf Bermudagrass [1]): overall reduced evapotranspiration
phytotoxicity to the turfgrass (Ultradwarf Bermudagrass [2]): did not result in any unacceptable phytotoxicity
turf quality under drought or heat stress (Ultradwarf Bermudagrass [2]; with chlorothalonil, fluazinam and azoxystrobin products): improved turf quality

Source: patent publication US20220287306A1, “METHOD FOR IMPROVING TURFGRASS ABIOTIC STRESS TOLERANCE” (SYNGENTA PARTICATIONS AG, priority 2014, published 2022)
